# Results from ChEMBL document CHEMBL1140044, “Structure-activity relationship study on anti-HIV 6-desfluoroquinolones” (J Med Chem, 2008).
# Calls of active or inactive are those of the source. The calls are words filed in the database; no cut-off is given here.
# Key:
# [1] = Cytotoxicity against mock-infected human MT4 cells after 5 days by MTT assay; format: cell-based
# [2] = test system: Human immunodeficiency virus 1; test: Antiviral activity against HIV1 3B in MT4 cells assessed as inhibition of virus-induced cytopathogenicity by MTT assay; format: functional, organism-based; conditions: Human immunodeficiency virus 1, 3B
# [3] = test system: Human immunodeficiency virus 2; test: Antiviral activity against HIV2 ROD in MT4 cells assessed as inhibition of virus-induced cytopathogenicity by MTT assay; format: functional, organism-based; conditions: Human immunodeficiency virus 2, ROD
# [4] = test system: Human immunodeficiency virus 1; test: Antiviral activity against HIV1 3B in MT4 cells assessed as virus p24 antigen production administered at 5 hrs post infection by ELISA; format: functional, organism-based
# [5] = test system: Human immunodeficiency virus 1; test: Antiviral activity against HIV1 3B in MT4 cells assessed as virus p24 antigen production administered at 16 hrs post infection by ELISA; format: functional, organism-based
# [6] = test system: Human immunodeficiency virus 1; test: Antiviral activity against HIV1 3B in PBMC assessed as inhibition of p24 production after 7 days by ELISA; format: functional, organism-based; conditions: Human immunodeficiency virus 1, 3B, 168 h
# [7] = Selectivity index, ratio of CC50 for human MT4 cells to EC50 for HIV1 3B; format: toxicity, cell-based; conditions: read-out: Ratio CC50/EC50
# [8] = Selectivity index, ratio of CC50 for human MT4 cells to EC50 for HIV2 ROD; format: toxicity, cell-based; conditions: read-out: Ratio CC50/EC50
# [9] = Selectivity index, ratio of CC50 for human CEM cells to EC50 for HIV1 3B; format: toxicity, cell-based, CCRF-CEM; conditions: read-out: Ratio CC50/EC50
# [10] = Cytotoxicity against mock-infected human CEM cells by Coulter counter; format: cell-based; conditions: mock-infected CEM (CCRF-CEM) cells
# [11] = test system: Human immunodeficiency virus 2; test: Antiviral activity against HIV2 ROD in CEM cells assessed as inhibition of virus-induced syncytium formation after 4 days by microscopy; format: functional, organism-based; conditions: Human immunodeficiency virus 2, ROD, CCRF-CEM, 96 h
# [12] = Selectivity index, ratio of CC50 for human PBMC cells to EC50 for HIV1 3B; format: toxicity, cell-based; conditions: read-out: Ratio CC50/EC50
# [13] = Cytotoxicity against mock-infected human PBMC cells by trypan blue exclusion assay; format: cell-based
# [14] = Selectivity index, ratio of CC50 for human CEM cells to EC50 for HIV2 ROD; format: toxicity, cell-based, CCRF-CEM; conditions: read-out: Ratio CC50/EC50
# [15] = test system: Human immunodeficiency virus 1; test: Inhibition of HIV1 3B production in chronically infected HUT78 cells assessed as virus p24 antigen production after 44 hrs by ELISA; format: functional, organism-based
# [16] = test system: Human immunodeficiency virus 1; test: Antiviral activity against HIV1 3B in CEM cells assessed as inhibition of virus-induced syncytium formation after 4 days by microscopy; format: functional, organism-based; conditions: Human immunodeficiency virus 1, 3B, CCRF-CEM, 96 h
# [17] = target: T1, Protein Tat (Human immunodeficiency virus type 1 group M subtype B (isolate HXB2)(HIV-1)) (UniProt P04608); test: Inhibition of HIV1 Tat-mediated LTR promoter transactivation in Tat/GFP plasmid expressed in Jurkat cells assessed as GFP gene expression by FACS analysis; format: cell-based; conditions: Human immunodeficiency virus 1
# T1 sequence (whole entry): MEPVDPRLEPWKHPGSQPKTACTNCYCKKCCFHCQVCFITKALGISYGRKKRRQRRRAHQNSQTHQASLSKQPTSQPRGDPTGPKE
# [18] = test system: Human immunodeficiency virus 1; test: Antiviral activity against HIV1 3B in MT4 cells assessed as virus p24 antigen production administered at 10 hrs post infection by ELISA; format: functional, organism-based
EC50 [6] [µg/mL],EC50 [11] [µg/mL],EC50 [16] [µg/mL],Activity [17],SMILES,CC50 at 120 h [1] [µg/mL],EC50 [2] [µg/mL],EC50 [3] [µg/mL],Activity [4],Activity [5],selectivity ratio [7],selectivity ratio [8],selectivity ratio [9],CC50 [10] [µg/mL],selectivity ratio [12],CC50 [13] [µg/mL],selectivity ratio [14],Activity [15],Activity [18]
,,,,Cn1cc(C(=O)O)c(=O)c2cc(N)c(N3CCC(c4ccccn4)CC3)cc21,> 125,> 125,> 125,,,,,,,,,,,
,,,,Cc1cn([C@H]2C[C@H](N=[N+]=[N-])[C@@H](CO)O2)c(=O)[nH]c1=O,,,,Active,Active,,,,,,,,,
0.28,0.28,0.13,,Cn1cc(C(=O)O)c(=O)c2ccc(N3CCN(c4cccc(C(F)(F)F)c4)CC3)cc21,2.61,0.07,0.13,,,38,21,9,1.2,2,0.69,4,Active,
,,,,Cn1ccc(=O)c2cc(N)c(N3CCN(c4nccs4)CC3)cc21,89.5,> 89.5,> 89.5,,,< 1,< 1,,,,,,,
0.051,0.06,0.03,,Cn1cc(C(=O)O)c(=O)c2cc(N)c(N3CCN(c4ccccn4)CC3)cc21,0.84,0.058,0.097,,,15,10,> 3330,> 100,29,1.45,> 1670,,
0.21,0.6,0.7,,Nc1cc2c(=O)c(C(=O)O)c[nH]c2cc1N1CCN(c2nccs2)CC1,7.61,1.21,1.92,,,7,5,23,15.8,10,2.02,26,,
,,,,CC(=O)c1cn(C)c2cc(N3CCN(c4ccccn4)CC3)c(N)cc2c1=O,> 125,> 125,> 125,,,,,,,,,,,
,47.5,35,,Cn1cc(C(=O)O)c(=O)c2ccc(N3CCN(c4cnccn4)CC3)cc21,> 125,58.2,16.4,,,> 2,8,> 3,> 100,,,> 2,,
,,,,Cn1cc(C(=O)O)c(=O)c2cc(N)c(N3CCC(c4ccccn4)C3)cc21 (stereo not drawn),> 90.8,> 90.8,> 90.8,,,< 1,< 1,,,,,,,
,,,,Cn1cc(C(=O)NCc2ccc(F)cc2F)c(=O)c2cc(N)c(N3CCN(c4ccccn4)CC3)cc21,32.2,> 32.2,> 32.2,,,< 1,< 1,,,,,,,
,,,,Cn1cc(C(N)=O)c(=O)c2cc(N)c(N3CCN(c4ccccn4)CC3)cc21,> 125,> 125,> 125,,,,,,,,,,,
1.35,1.8,1.2,,Cn1cc(C(=O)O)c(=O)c2ccc(N3CCN(c4ccccn4)CC3)cc21,65.5,19.2,> 65.5,,,3.4,< 1,> 83,> 100,> 74,> 100,> 56,,
,,,,Cn1cc(C(=O)O)c(=O)c2cc(N)c(N3CCNCC3)cc21,≥ 94,> 94,> 94,,,,,,,,,,,
0.15,0.065,0.024,Dose-dependent effect,Cn1cc(C(=O)O)c(=O)c2ccc(N3CCN(c4nc5ccccc5s4)CC3)cc21,0.44,0.03,0.04,,,14.7,5.5,281,6.74,4,0.65,104,Active,Active
,,,,Cc1cccc(Sc2cc3c(cc2N)c(=O)c(C(=O)O)cn3C)c1,> 2,> 2,> 2,,,< 1,< 1,,,,,,,
